Patent publication US6541503B2, “Substituted oxindole derivatives as protein tyrosine kinase and as protein serine/threonine kinase inhibitors” (SmithKline Beecham Corporation, priority 1997, dated 2003)
Read-outs that look alike come from different tables or passages of the source.

Experiments:
Type in all cases: biochemical
[1] = target: CDK1 (Homo sapiens, UniProt P06493); assay: Cyclin dependent protein kinase substrate phosphorylation assay, CDK1
Experimental: Cyclin dependent protein kinase assays utilized the peptides Biotin-aminohexyl-[…] and Biotin-aminohexyl-[…]-NH2 as phosphoryl group acceptors. CDK1 and CDK2 were both expressed utilizing a baculovirus expression system and were partially purified to comprise 20-80% of total protein, with no detectable competing reactions present. Typically, assays were performed by incubating either enzyme (0.2-10 nM), with and without inhibitor, one of the two peptide substrates ([…]), [γ-^32P]ATP ([…]), and 10-20 mM Mg^2+ for periods of time generally within the range 10-120 min. Reactions were terminated with 0.2-2 volumes of either 20% acetic acid or 50-100 mM EDTA buffered to pH 7 (substrate consumption<20%). The buffer employed in enzyme assays was either 30 mM HEPES 7.4 containing 0.15 M NaCl and 5% DMSO, the buffer 50 mM MOPS 7.0 containing 0.15 M NaCl and 5% DMSO, or the buffer 100 mM HEPES pH 7.5 containing 0.1 mg /mL BSA and 5% DMSO. Inhibitors were diluted in 100% DMSO prior to addition into the assay. Detection of peptide phosphorylation was accomplished by scintillation counting following either collection of peptide onto phosphocellulose filters (for reactions stopped with acetic acid), collection of peptide in wells of 96 well plates coated with Streptavidin (Pierce) (reactions were stopped with EDTA), or addition of Avidin coated Scintillant impregnated beads (Scintillation Proximity Assays from Amersham, reactions were stopped with EDTA).

[2] = target: Lck (Homo sapiens, UniProt P06239); assay: Lck peptide phosphorylation assay (Elisa or isotope based)
[3] = target: VEGFR2 (Homo sapiens, UniProt P35968); assay: VEGFR-2 kinase domain peptide phosphorylation Elisa
Experimental: The peptide substrate used in the VEGFR-2 assay was biotin-aminohexyl-[…]-NH2. The kinase domain of the enzyme was purified to homogeneity from a baculovirus expression system. The enzyme was preactivated on ice for 15 min in the presence of 100 μM ATP and 20 mM MgCl2, and stored at −80° C. until needed for assay. The activated enzyme was diluted to 0.4 nM into a 60 μl reaction containing 100 mM HEPES, pH 7.5, 5 μM ATP, 10 mM MgCl2, 5 μM peptide, 0.1 mM DTT, 0.05 mg/ml BSA, and an inhibitor at varying concentrations. The controls were reactions in the presence (negative controls) or absence (positive controls) of 50 mM EDTA. Reactions were incubated for 30 min at room temperature, and then quenched by the addition of EDTA to 60 mM in 210 μl. The quenched samples (190 μl) were transferred to a neutravidin-coated plate (Pierce) and incubated at room temperature for 40 min to allow biotinylated peptide to bind to the neutravidin. The unbound components of the reaction were removed by washing with a plate washer, then 200 μl HRP-PY20 anti-phosphotyrosine antibody conjugate was added to each well. After incubation for 40 min, the plate was washed to remove any unbound antibody. A HRP substrate, K-blue (Neogen) was added and the reaction was quenched with Red Stop (Neogen) after 20 min. The absorbance of the wells was read at A650 in a plate reader. IC50 values were obtained by fitting raw data to A650=Vmax*(1−[l]/IC50+[l])))+b, where b is background.

[4] = target: cSrc (Homo sapiens, UniProt P12931); assay: Src peptide phosphorylation assay (Elisa or isotope based)
Experimental: The peptide substrates used in Src and Lck assays were biotin-aminohexyl-EEIYGEF-NH2 (Src) and biotin-aminohexyl-[…]-NH2 (Lck). The src and Ick proteins were purified to homogeneity from a baculovirus expression system and preactivated before adding to assay mixtures. The maximum activation was achieved by incubating concentrated enzyme (10-30 mM) on ice for 40 min in the presence of 1 mM ATP and 10 mM MgCl2 in 100 mM HEPES, pH 7.5. The activated enzyme was diluted to 2 nM into a 50-mL reaction mixture containing 100 mM HEPES, pH 7.5. 5 mM ATP, 10 mM MgCl2, 2 mM peptide, 0.05 mg/mL BSA, and an inhibitor at varying concentrations and with or without 8 mCi/mL [γ-^33P]ATP dependent upon the method of analysis for the extent of reaction. The controls were reactions in the presence (negative controls) or absence (positive controls) of 50 mM EDTA. Reactions were allowed to proceed for 30 min at room temperature and quenched with addition of EDTA to 50 mM in 220 mL. The extent of reactions was analyzed in one of the two ways: an Elisa-based and a radioactive isotope-based. The quenched samples (200 mL) were transferred to a neutravidin coated plate (Perice) and incubated at room temperature for 40 min to allow biotinylated peptide to bind to neutravidin. The unbound peptide and the rest of the solution was washed away using a plate washer. In the Elisa format, a 200 mL HRP-PY20 anti phosphotyrosine antibody conjugate solution was added. After incubation for about 30 min, the plated was washed to remove unbound antibody-HRP conjugate. An Elisa substrate, K-blue (Neogen), was added and the Elisa reaction quenched with Red-stop (Neogen) after 15 min. The plate was read at A625 in a plate reader. In the isotope-based format, the reactions had been performed in the presence of [γ-^33P]ATP. 200 mL Scintiverce DB was added to each well of the plate with bound biotin-peptide. The plate was sealed and counted in a micro-b-counter (Wallac). IC50 values were obtained by fitting raw data to A625 (cpm)=Vmax*(1−([l]/(IC50+[l])))+b, where b is background.

Lck, sequence (P06239 whole entry, species assumed, the tested form may be a part): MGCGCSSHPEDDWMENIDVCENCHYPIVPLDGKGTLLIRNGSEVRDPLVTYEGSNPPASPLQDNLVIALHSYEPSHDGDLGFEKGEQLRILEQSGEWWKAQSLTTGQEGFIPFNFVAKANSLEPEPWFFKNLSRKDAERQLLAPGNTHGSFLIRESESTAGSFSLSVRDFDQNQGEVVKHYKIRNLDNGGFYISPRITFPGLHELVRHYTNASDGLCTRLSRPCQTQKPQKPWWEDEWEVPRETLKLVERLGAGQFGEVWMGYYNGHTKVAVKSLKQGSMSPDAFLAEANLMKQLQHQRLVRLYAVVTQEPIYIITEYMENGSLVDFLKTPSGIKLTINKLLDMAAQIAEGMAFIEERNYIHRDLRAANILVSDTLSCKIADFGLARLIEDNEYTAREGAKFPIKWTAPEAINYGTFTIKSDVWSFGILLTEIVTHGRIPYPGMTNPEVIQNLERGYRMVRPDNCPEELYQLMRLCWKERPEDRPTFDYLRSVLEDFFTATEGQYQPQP
cSrc, sequence (P12931 whole entry, species assumed): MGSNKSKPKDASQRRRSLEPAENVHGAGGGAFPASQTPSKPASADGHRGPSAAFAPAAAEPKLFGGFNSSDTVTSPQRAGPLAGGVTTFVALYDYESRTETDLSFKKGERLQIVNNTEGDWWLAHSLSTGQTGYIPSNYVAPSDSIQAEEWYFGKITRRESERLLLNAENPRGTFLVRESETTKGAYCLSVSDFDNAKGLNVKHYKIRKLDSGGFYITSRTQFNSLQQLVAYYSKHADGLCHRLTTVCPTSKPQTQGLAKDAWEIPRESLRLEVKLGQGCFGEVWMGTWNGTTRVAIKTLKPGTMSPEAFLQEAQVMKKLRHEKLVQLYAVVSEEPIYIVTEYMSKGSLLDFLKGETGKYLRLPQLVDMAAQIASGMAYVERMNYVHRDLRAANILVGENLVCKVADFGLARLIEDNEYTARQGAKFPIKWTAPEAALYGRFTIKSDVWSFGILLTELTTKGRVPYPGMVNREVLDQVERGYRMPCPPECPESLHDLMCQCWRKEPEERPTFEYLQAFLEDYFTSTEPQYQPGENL
VEGFR2, sequence (P35968 834-1162 limits assumed, species assumed): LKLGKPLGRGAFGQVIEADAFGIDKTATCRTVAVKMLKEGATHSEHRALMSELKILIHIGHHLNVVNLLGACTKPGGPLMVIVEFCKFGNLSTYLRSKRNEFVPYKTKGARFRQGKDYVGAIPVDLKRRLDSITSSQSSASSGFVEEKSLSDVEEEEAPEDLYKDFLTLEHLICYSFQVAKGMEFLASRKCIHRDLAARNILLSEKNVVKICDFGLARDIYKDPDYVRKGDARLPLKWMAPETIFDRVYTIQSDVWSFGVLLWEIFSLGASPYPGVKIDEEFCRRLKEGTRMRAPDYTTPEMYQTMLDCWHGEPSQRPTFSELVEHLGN
CDK1, sequence (P06493 whole entry, species assumed): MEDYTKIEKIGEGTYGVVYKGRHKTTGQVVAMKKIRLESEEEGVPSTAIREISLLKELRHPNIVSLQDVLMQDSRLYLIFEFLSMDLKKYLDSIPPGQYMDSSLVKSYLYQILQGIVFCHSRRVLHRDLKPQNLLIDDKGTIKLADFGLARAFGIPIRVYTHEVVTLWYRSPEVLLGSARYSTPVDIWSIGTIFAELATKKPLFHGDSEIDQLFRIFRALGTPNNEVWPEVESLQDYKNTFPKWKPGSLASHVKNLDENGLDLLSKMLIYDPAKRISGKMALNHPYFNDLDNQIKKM
CDK1, sequence (P14635 whole entry partner, species assumed): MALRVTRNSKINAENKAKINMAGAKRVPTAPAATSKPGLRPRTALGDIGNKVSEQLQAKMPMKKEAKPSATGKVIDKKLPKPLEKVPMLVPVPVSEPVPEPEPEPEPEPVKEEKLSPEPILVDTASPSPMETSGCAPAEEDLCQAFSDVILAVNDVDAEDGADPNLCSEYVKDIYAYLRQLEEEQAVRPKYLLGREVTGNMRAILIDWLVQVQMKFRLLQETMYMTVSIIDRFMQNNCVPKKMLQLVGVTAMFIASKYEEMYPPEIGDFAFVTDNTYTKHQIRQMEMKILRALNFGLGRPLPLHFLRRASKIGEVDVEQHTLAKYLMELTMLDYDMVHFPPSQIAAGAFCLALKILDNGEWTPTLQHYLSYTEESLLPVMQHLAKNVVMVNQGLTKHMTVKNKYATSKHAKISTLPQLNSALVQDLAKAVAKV

| Structure (SMILES) | IC50 ([1]; read-out: CDK1 IC50) [nM] | IC50 [2] [nM] | IC50 [1] [nM] | IC50 [3] [nM] | IC50 [4] [nM] |
| --- | --- | --- | --- | --- | --- |
| CNS(=O)(=O)Cc1ccc(NN=C2C(=O)Nc3ccc4ncccc4c32)cc1 [Example 68, N-Methyl-C-{4-[N′-(2-oxo-2,3-dihydro-pyrrolo[3,2-f]quinolin-1-ylidene)-hydrazino]-phenyl}-methanesulfonamide] | 51 to 100 | > 100 |  |  |  |
| O=C1Nc2ccc3ncsc3c2C1=CNc1ccc(S(=O)(=O)Nc2ccccn2)cc1 [Example 72, 4-[(7-Oxo-6,7-dihydro-1-thia-3,6-diaza-as-indacen-8-ylidenemethyl)-amino]-N-pyridin-2-yl-benzenesulfonamide] |  |  | 51 to 100 | 51 to 100 | > 100 |
| CS(=O)(=O)Cc1ccc(NC=C2C(=O)Nc3ccc4ncsc4c32)cc1 [Example 76, 8-(4-Methylsulfonylmethyl-phenylamino-methylene)-6,8-dihydro-1-thia-3,6-diaza-as-indacen-7-one] | > 100 | > 100 |  | > 100 | > 100 |
| CC(C)(CO)CNS(=O)(=O)c1ccc(NC=C2C(=O)Nc3ccc4ncsc4c32)cc1 [Example 77, N-(3-Hydroxy-2,2-dimethyl-propyl)-4-[(7-oxo-6,7-dihydro-1-thia-3,6-diaza-as-indacen-8-ylidenemethyl)-amino]-benzenesulfonamide] | 1 to 10 |  |  |  |  |
| CNS(=O)(=O)Cc1ccc(NN=C2C(=O)Nc3cc(C)c(O)c(C)c32)cc1 [Example 99] | > 100 | > 100 |  | > 100 | > 100 |
